Measured values: patent US6011019A, “Vasoactive effects and free radical generation by β-amyloid peptides” (University of South Florida, priority 1996, dated 2000)

Legend:
rat coronary arteries = assay: Rat coronary artery constriction and relaxation (U46619, acetylcholine); details: for constriction of rat coronary artery by the peptide: 10^-6 M peptide
Method: The effects of β-amyloid peptide were examined on samples of rat coronary arteries prepared as described above. Referring specifically to FIG. 1, rat coronary arteries were treated with β-amyloid peptide (Aβ40) causing constriction of the coronary arteries.
FIG. 3 illustrates the effect of various amyloid fragments on the constriction of rat coronary arteries. Following control constriction with 10^-7 M U46619, the tissue samples were rinsed, equilibrated with buffer, and treated with 10^-6 M Aβ peptides for fifteen minutes. Following treatment with the Aβ peptides, the blood vessels were rinsed and again exposed to U46619. The values are expressed as percent of control constriction produced by U46619 alone.
The effect of pretreatment of coronary arteries with a single dose (10^-6 M) of A40 on acetylcholine induced relaxation is shown in FIG. 20. The blood vessel was preconstricted with 10^-7 M U46619 and relaxed with increasing doses of acetylcholine (10^-9 M to 10^-5 M).

[1] = tested on: human neuroblastoma cell line (BE(2)-M17); assay: Aβ toxicity on BE(2)-M17 (trypan blue exclusion); type: cell-based; details: same concentrations as HAEC cultures, up to day eight; data not shown
From the text: Trypan blue exclusion was used for the cell viability assay.

rat aorta = assay: Enhancement of endothelin-1 (ET-1) induced vasoconstriction of rat aorta
Method: Normal Sprague-Dawley rats were sacrificed by decapitation, and freshly dissected rat aorta was segmented into rings and suspended in Ringers buffer using a tensiometer linked to the MacLab system. Following a two hour equilibration period, the "pretreatment" contraction was carried out. The aortic rings were contracted using a range of doses of endothelin-1 and relaxed using a single odes of acetylcholing (Ach(10^-7 M)). […] The dose of each Aβ peptide was 1 μM, with the exception of Aβ25-35 (1 μM and 5 μM), and was added ten minutes prior to the first ET-1 dose. For SOD treatment we added 150 U/ml 30 seconds before the addition of Aβ.
Endothelium was removed by gently passing a glass pipette, dipped in saline solution, through the lumen of the aortae several time, allowing the pipette to gently brush the endothelial surface. Endothelium was removed from the aortae prior to hanging in the tissue bath system. Both pre-and post treatment contractions involved a single does of ET-1 (5×10^-9 M).
(§1) In all cases the mean difference in percentage contraction in the pre- and post-contractions (before and after addition of test compound respectively) was measured, and compared between the two. Endogenous production of ET-1 was measured using an ET-1 RIA kit (Peninsula Laboratories).

ET-1 = assay: Endogenous ET-1 release, radioimmunoassay; set-up: species or system rat; details: competition with 125I-labeled ET-1
Method: as §1
To investigate the possibility that Aβ releases endogenous stores of ET-1 a radioimmunoassay in which endogenous ET-1 released into the vessel buffer, would compete with ^125 I-labeled ET-1 for binding to a specific antibody was performed. […] In addition, to examine the role played by lipid peroxidation is in the vasoconstrictive mechanism, vessels were contracted in the presence of allopurinol, which inhibits the conversion of xanthine dehydrogenase to xanthine oxidase, preventing lipid peroxidation.

Sprague-Dawley rats [2] = assay: Morris water maze acquisition and memory retention during intravenous Aβ infusion; type: in vivo, rat; details: days 7-14
Method: (§2) Eleven three month old male Sprague-Dawley rats (300-350 g) were anesthetized with sodium pentobarbital (50 mg/kg, ip.) and a polyethylene cannula was inserted into the right external jugular vein to approach or enter the right atrium. […] The remaining six animals served as controls by receiving twice daily intravenous infusions of vehicle solution. Treatments were continued for 14 days, with Morris water maze "acquisition" (learning) tested during days 7-13 and water maze memory retention evaluated on day 14. Daily acquisition testing consisted of four consecutive daily trials, wherein latency to reach the submerged platform in Quadrant 2(Q2) was determined and a daily average calculated. For the memory retention trial, the submerged platform was removed and animals were placed in the quadrant opposite Q2. The percentage of time spent in the quadrant formerly containing the platform (Q2) was used as a measure of memory retention. Acquisition data was analyzed using two-way ANOVA for repeated measures and retention data was analyzed with one-way ANOVA and Student's t-test.

basilar artery = assay: Diameter of the basilar artery in living animals after Aβ infusion; type: in vivo, rat
Method: In the experiments, the animals were infused twice daily for two weeks for an estimated final molarity of 0.5 μM. In the experiments, Aβ1-40 was used. The Aβ infused animals developed gross lung pathology. The lung capillary beds were the first to be reached by the venously infused Aβ. […] This is consistent with the conclusion that in Alzheimer's Disease, the cerebral vasculature could potentially be damaged and destroyed by circulating or locally produced Aβ.

[3] = tested on: human aortic endothelial cel line (HAEC)
Method: All these cells were maintained at 37° C., under an atmosphere containing 5% CO2. For the present experiments, HAEC and BE(2)-M17 were seeded at densities of 2×10^4 cells per well in 24-23ll clusters.
The experiments were terminated one half, one, two and three hours post treatment by detachment with Trypsin/EDTA solution and followed by a toxicity assay with trypan blue exclusion. In parallel experiments, cells were attached to a round Thermanox (Nunc) at the bottom of the well, and were stopped three to 24 hours post treatment by fixation with 4% neutral formalin solution which was followed by Hematoxylin-Eosin stain to show morphology.
Morphological changes in cells were monitored throughout the course of the experiment with an inverse phase-contrast microscope. After termination of the experiments, the cells fixed on the Thermanox were subjected to routine Hematoxylin-Eosin (HE) stain. The morphological characteristics of toxic cells were observed under light microscope and typical results were recorded by photographs.
For approximate quantification of Aβ toxicity of HAEC, modified procedure for trypan blue exclusion was employed. In brief, the detached cells were resuspended with an appropriate volume of culture media, 20 μl of this cell suspension was mixed with an equivalent volume of 4% Trypan-blue solution thoroughly, and allowed to sit for two minutes after mixing. Approximately 9 μl of the mixture was transferred to a hemocytometer for cell counting. The cell viability was determined by the equation: [formula] In the case of severe toxicity, where some of the cells were lysed, the total cell numbers were adjusted by that of controls. In this experiment, counts for each sample were triplicated.

Sprague-Dawley rats [4] = details: rat, in vivo
Method: as §2
On day 15, animals were anesthetized with sodium pentobarbital and transcardially perfused with 4% paraformaldehyde in 0.1M PBS (pH 7.4). Tissue samples from the lung, heart, kidney, liver and pancreas were collected and post-fixed in perfusate solution until histologic processing. Brains were removed and placed in perfusate for 24 hours, followed by cytoprotective storage in 30% sucrose until histologic processing. For all tissues 20 and 40 μm frozen sections were collected and stained with Mayer's Acid Hemalin followed by alkaline Congo red. Selected 20 μm brain sections were stained for glial fibrillary acidic protein (GFAP).

“Aβ1-40: Soluble Aβ containing forty amino acids; supplied by RBI and/or MD Enterprise” was tested, and the “constriction of rat coronary artery by the peptide” value (rat coronary arteries) was “induce constriction of the coronary artery”, the “constriction of rat coronary artery by the peptide” value (rat coronary arteries; listed as Aβ) was “small but detectable contraction” and the “duration of constriction compared among fragments” value (rat coronary arteries; 10^-6 M peptides, real time recording) was “longest sustained constriction”. The “U46619 induced vasoconstriction following Aβ treatment” value (rat coronary arteries; 10^-7 M U46619 after 10^-6 M Aβ for fifteen minutes) was “significantly potentiated”, the “toxic effect on differentiated BE(2)-M17 cells” value [1] was “not toxic effect was noticed” and the “effect of Aβ on the ET-A antagonist induced decrease of ET-1 contraction” value (rat aorta) was “in part countered”. For the same substance, the “enhancement in aortae from older versus younger rats” value (rat aorta) was “trend towards greater enhancement in older rats”, the “enhancement of ET-1 contraction” value (rat aorta; peptide 1 μM (Aβ25-35 1 μM and 5 μM) ten minutes prior to first ET-1 dose) was “dramatically enhanced the contraction of rat aorta by ET-1” and the “enhancement of ET-1 contraction in the absence of endothelium” value (rat aorta; single dose ET-1 5×10^-9 M) was “enhance contraction of rat aortae to an extent not significantly different from the enhancement observed in the presence of endothelium”. The “release of endogenous ET-1 into the vessel buffer” value (ET-1) was “did not indicate that any unlabelled ET-1 was present”, the “water maze acquisition and memory retention” value (Sprague-Dawley rats [2]) was “no different from that of vehicle-infused controls” and the basilar artery diameter (basilar artery) was “results in constriction of this artery”. For the same substance, the “cell viability at 32 μM” value [3] was “significantly less cell viability compared to control”, the “cell viability at low concentrations” value [3] was “not found to induce significant change of cell viability” and the “toxicity of several batches (RBI, MD, Sigma)” value [3] was “almost non-toxic to HAEC”. For the same substance, the “Congo red birefringence in the brains” value (Sprague-Dawley rats [4]) was “no Congo red birefringence was observed”, the “perivascular gliosis in GFAP stained brain sections” value (Sprague-Dawley rats [4]) was “increased perivascular gliosis was evident” and the “severe vascular accidents in other peripheral tissues (kidney, pancreas, heart)” value (Sprague-Dawley rats [4]) was “not, however, typically seen”.
